Assay results taken from US20240425478A1, “CYCLOPENTYLPYRAZOLE CDK2 INHIBITORS” (Genentech, Inc., priority 2021, published 2024).

Key:
[1] = target: T1, Cyclin Dependent Kinase 1/Cyclin A2 (CDK1-cycA2) (Homo sapiens, UniProt P06493); assay: CDK1-cycA2 TR-FRET (Lance) enzyme assay; assay type: biochemical; settings: Table P; for Ki: enzymatic assay; for FS CDK1/CDK2: fold selectivity, enzymatic Ki ratio
T1 construct: purchased ProQinase 0134-0054-1
Outline: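 TR-FRET (Lance) detection of phospho-4E-BP1 with a europium-labelled antibody after EDTA quench (15 mM final); signal taken as acceptor/donor ratio. Enzyme and compound were pre-incubated 30 min in HEPES pH 7.5 buffer with MgCl2, TCEP, BGG and Brij 35. Ki derived by Morrison fit.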

[2] = target: T2, Cyclin Dependent Kinase 2/Cyclin E1 (CDK2-cycE1) (Homo sapiens, UniProt P24941); assay: CDK2-cycE1 TR-FRET (LANCE) enzyme assay; assay type: biochemical; settings: read-out: CDK2 activity / potency (enzymatic assay)
T2 construct: purchased ProQinase 0050-0055-1
Outline: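 Kinase reaction buffer: 50 mM HEPES pH 7.5, 10 mM MgCl2, 2 mM TCEP, 0.05% BGG, 0.01% Brij 35, with 30 min compound–enzyme pre-incubation.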

[3] = target: T3, Cyclin Dependent Kinase 4/Cyclin D3 (CDK4-cycD3) (Homo sapiens, UniProt P11802); assay: CDK4-cycD3 TR-FRET (LANCE) enzyme assay; assay type: biochemical; settings: Table P; for Ki: enzymatic assay; for FS CDK4/CDK2: fold selectivity, enzymatic Ki ratio
T3 construct: purchased Carna Biosciences 04-105
T3 sequence (P11802 whole entry): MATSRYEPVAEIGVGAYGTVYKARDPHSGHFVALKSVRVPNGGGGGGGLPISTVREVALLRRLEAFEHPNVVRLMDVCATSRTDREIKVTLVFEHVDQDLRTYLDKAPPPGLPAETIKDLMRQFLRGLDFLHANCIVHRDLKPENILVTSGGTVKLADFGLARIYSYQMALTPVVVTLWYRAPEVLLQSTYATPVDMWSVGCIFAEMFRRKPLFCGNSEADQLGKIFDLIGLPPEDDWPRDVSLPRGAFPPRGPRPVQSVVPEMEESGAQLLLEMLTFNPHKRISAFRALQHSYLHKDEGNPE
T3 sequence (P30281 whole entry partner): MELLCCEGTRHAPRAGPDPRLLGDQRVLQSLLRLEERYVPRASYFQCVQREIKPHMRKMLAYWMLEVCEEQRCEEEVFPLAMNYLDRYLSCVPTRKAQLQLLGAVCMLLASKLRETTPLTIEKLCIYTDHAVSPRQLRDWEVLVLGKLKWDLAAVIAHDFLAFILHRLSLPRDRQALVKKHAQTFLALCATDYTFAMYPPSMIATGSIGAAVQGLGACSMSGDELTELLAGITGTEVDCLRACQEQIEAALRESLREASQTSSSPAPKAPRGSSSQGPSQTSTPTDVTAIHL
Outline: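 Compound dose responses pre-incubated 30 min with enzyme mix in 50 mM HEPES pH 7.5, 10 mM MgCl2, 2 mM TCEP, 0.05% BGG, 0.01% Brij 35. Reaction quenched with EDTA (15 mM final); Eu-anti-phospho-4E-BP1 TR-FRET detection, acceptor/donor ratio. Ki derived by Morrison equation.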

[4] = test system: OVISE (JCRB1043, CCNE1-amplified); assay: OVISE EdU incorporation cell proliferation assay (CDK2-dependent); assay type: cell-based; settings: cellular assay, Table P; read-out: CDK2 OVISE IC50
Outline: (§1)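 EdU incorporation (0.5 μM final, last 8 h) follows a 16 h compound exposure at 37 °C, 5% CO2 in RPMI plus 10% FBS, 0.5% DMSO. After fixation, imaging scores EdU-positive cells; a 4-parameter logistic fit of that fraction gives IC50.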

SKOV-3 (ATCC HTB-77) = assay: SKOV-3 EdU incorporation cell proliferation assay (CDK4/6-dependent); assay type: cell-based; settings: Table P; for IC50: Homo sapiens, SK-OV-3, cellular assay, read-out: CDK4/6 SKOV-3 IC50; for FS SKOV-3/OVISE: fold selectivity, cellular IC50 ratio (CDK4/6 over CDK2)
Outline: as §1

HCT116 cells = assay: p-H3 HCT-116 mitotic release cell proliferation assay (cellular CDK1); assay type: cell-based; settings: for IC50: Homo sapiens, HCT-116, cellular assay, read-out: CDK1 p-H3 IC50; for IC50 / FS p-H3/OVISE: Table P; for FS p-H3/OVISE: fold selectivity, cellular IC50 ratio (CDK1 over CDK2)
Procedure: Inhibition of cellular CDK1 determined by release of cells from nocodazole-induced mitotic arrest, as measured by decrease in phospho-Histone H3. Histone H3 (Ser 10) level is detected in cell lysates by producing a Fluorescence Resonance Energy Transfer (FRET) signal between two antibodies, Phospho-Histone H3 Cryptate (acting as the donor) and Phospho-Histone H3 d2 (acting as the acceptor).
Plates are allowed to rest overnight at 37° C./5% CO2. The following morning, nocodazole is diluted in complete medium, and 5 μL is added to each test well and positive control well for a final concentration of 500 nM. Plates are then incubated for 16 hours at 37° C./5% CO2. […] 10 μL of diluted compound is then transferred to the cell plate (final DMSO concentration 0.1%). Cell plates are then incubated for 4 hours in 37° C. 5% CO2. A cell lysis buffer is prepared on ice using reagents from the Phospho-Histone H3 (Ser10) cellular kit (Cisbio-64HH3PEG). Supernatant is discarded from the cell plate and 80 μL of the supplemented cell lysis buffer (1:99 dilution of the Blocking Reagent and the 1× cell lysis buffer provided in the kit) is added to each of the experimental wells. The cell lysis reaction is allowed to proceed at room temperature while shaking vigorously for 30 minutes. The 384-well HTRF (Homogeneous Time Resolved Fluorescence) plate is prepared by adding 2 μL of each diluted antibody (Phospho-Histone H3 Cryptate antibody and Phospho-Histone H3 d2 antibody diluted 19:1 in a detection buffer) and 12 μL of the supplemented cell lysis buffer to each well in the HTRF plate. 4 μL of the cell lysate is added to the prepared HTRF plate which is then sealed and the reaction is allowed to proceed for a minimum of 2 hours at room temperature.

T1 sequence (P06493 whole entry): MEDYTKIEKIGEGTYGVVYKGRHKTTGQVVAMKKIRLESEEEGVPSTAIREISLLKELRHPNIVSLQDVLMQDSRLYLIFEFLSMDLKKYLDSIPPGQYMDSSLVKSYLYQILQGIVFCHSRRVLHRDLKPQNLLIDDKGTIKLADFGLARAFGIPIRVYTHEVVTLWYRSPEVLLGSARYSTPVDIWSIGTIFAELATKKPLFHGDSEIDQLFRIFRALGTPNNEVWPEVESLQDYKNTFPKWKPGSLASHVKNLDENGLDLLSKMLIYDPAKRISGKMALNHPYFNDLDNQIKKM
T1 sequence (P20248 whole entry partner): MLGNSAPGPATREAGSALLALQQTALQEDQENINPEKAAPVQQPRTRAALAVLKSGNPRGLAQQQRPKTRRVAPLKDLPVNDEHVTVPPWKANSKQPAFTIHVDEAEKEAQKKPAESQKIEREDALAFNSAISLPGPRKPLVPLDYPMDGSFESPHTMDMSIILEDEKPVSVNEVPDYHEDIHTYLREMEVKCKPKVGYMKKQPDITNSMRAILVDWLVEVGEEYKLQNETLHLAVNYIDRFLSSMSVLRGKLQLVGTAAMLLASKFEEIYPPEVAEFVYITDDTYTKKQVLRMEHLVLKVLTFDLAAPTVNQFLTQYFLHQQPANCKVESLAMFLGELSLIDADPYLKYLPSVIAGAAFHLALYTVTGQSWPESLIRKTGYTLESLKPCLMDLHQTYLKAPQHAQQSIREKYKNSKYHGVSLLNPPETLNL

In the case of `CC(C)(C)NC(=O)O[C@@H]1CC[C@H](c2cc(NC(=O)Cc3ccnnc3)n[nH]2)C1` [Comparator A, reference compound], the Ki [1] is reported as 9.1 nM, the “FS CDK1/CDK2” value [1] is reported as 54 and the Ki [2] is reported as 0.17 nM. For the same compound, the Ki [3] was 38 nM, the “FS CDK4/CDK2” value [3] was 224 and the IC50 [4] was 40 nM. For the same compound, the IC50 (SKOV-3 (ATCC HTB-77)) was 1700 nM, the “FS SKOV-3/OVISE” value (SKOV-3 (ATCC HTB-77)) was 43 and the “pH3/OVISE fold selectivity (CDK1 over CDK2, cellular assay data)” value (HCT116 cells) was 0.78 fold. The IC50 (HCT116 cells) was 31 nM and the “FS p-H3/OVISE” value (HCT116 cells) was 0.78.
`CC(C)(C)NC(=O)O[C@@H]1CC[C@H](c2cc(NC(=O)c3ccnnc3)n[nH]2)C1` [Comparator B, reference compound] was tested, and the Ki [1] was 32 nM, the “FS CDK1/CDK2” value [1] was 32 and the Ki [2] was 1 nM. The Ki [3] was 250 nM, the “FS CDK4/CDK2” value [3] was 250 and the IC50 [4] was 140 nM. For the same compound, the IC50 (SKOV-3 (ATCC HTB-77)) was 6700 nM, the “FS SKOV-3/OVISE” value (SKOV-3 (ATCC HTB-77)) was 48 and the “pH3/OVISE fold selectivity (CDK1 over CDK2, cellular assay data)” value (HCT116 cells) was 0.31 fold. The IC50 (HCT116 cells) was 43 nM and the “FS p-H3/OVISE” value (HCT116 cells) was 0.31.
